Active and inactive are the calls of the source. The calls are words filed in the database; no cut-off is given here.
Tests used:
[1] = biological target: T1, Solute carrier family 22 member 12 (Homo sapiens, UniProt Q96S37); assay: Inhibition of human URAT1 stably overexpressing in human HEK293 cells assessed as inhibition of 14C-uric acid uptake preincubated for 30 mins followed by substrate addition and measured after 15 mins using 14C-uric acid as substrate by liquid scintillation counting analysis; format: cell-based
T1 sequence (Q96S37 whole entry): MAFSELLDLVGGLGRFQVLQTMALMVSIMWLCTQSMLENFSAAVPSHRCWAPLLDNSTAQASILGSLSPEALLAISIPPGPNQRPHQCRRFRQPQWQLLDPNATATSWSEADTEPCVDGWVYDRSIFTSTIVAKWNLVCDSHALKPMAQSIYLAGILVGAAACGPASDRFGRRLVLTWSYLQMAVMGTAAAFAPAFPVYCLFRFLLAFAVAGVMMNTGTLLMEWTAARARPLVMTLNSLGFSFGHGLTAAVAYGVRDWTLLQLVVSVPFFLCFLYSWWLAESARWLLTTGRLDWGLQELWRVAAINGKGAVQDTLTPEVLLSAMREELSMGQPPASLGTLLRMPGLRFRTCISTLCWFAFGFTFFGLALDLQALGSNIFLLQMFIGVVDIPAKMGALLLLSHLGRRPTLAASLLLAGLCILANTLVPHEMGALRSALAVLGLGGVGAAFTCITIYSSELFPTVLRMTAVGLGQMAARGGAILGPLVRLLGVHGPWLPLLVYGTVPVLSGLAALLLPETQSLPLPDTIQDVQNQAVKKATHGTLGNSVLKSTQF

[2] = Hepatotoxicity in Kunming mouse assessed as increase in AST level in serum at 50 mg/kg,po for 14 days in presence of BSO; format: toxicity, organism-based; settings: in vivo, 336 h, time 14 day
[3] = Renal toxicity in Kunming mouse assessed as effect on creatinine level at 50 mg/kg,po for 14 days; format: organism-based; settings: in vivo, 336 h, time 14 day
[4] = biological target: T2, Solute carrier family 2, facilitated glucose transporter member 9 (Mus musculus, UniProt Q3T9X0); assay: Inhibition of mouse GLUT9 transfected in human HEK293 cells assessed as inhibition of uric acid induced current by cell patch-clamp assay; format: cell-based
T2 sequence (Q3T9X0 whole entry): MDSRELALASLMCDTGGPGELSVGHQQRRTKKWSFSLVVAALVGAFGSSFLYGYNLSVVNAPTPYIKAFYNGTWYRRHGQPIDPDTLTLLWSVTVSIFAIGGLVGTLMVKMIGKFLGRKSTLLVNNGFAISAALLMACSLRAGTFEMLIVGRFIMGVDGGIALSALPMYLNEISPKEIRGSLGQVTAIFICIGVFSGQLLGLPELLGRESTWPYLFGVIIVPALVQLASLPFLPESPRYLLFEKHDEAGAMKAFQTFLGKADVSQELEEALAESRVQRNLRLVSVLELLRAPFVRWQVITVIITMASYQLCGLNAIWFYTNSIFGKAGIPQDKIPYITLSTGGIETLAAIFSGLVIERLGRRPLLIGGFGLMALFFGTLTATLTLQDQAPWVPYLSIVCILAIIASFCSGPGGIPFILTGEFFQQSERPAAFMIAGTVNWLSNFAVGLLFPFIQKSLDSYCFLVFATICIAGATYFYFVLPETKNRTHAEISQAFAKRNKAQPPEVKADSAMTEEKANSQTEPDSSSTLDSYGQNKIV

[5] = biological target: T3, Solute carrier family 22 member 6 (Homo sapiens, UniProt Q4U2R8); assay: Inhibition of OAT1 (unknown origin) transfected in HEK293 cells assessed as inhibition of 6-CFL uptake preincubated for 30 mins followed by 6-CFL addition and measured for 15 mins by fluorescence based microplate reader analysis; format: cell-based
T3 sequence (Q4U2R8 whole entry): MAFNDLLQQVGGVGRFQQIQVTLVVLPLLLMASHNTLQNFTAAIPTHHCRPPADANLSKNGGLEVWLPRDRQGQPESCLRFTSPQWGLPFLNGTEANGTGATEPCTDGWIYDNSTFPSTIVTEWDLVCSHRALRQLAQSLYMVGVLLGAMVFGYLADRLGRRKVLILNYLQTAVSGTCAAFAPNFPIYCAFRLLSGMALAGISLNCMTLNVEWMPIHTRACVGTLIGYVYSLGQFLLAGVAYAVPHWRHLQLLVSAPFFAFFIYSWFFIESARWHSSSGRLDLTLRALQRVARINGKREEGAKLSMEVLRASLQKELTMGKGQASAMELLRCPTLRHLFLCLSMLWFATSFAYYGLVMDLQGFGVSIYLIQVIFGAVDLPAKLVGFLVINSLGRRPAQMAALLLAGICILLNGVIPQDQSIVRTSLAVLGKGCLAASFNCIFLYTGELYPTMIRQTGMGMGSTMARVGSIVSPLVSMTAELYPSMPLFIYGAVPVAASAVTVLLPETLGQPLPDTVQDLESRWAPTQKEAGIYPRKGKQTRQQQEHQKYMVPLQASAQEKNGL

[6] = Tmax in Sprague-Dawley rat at 5 mg/kg, po and measured upto 24 hrs by LC-MS/MS analysis; format: ADME, organism-based; settings: in vivo
[7] = Tmax in Sprague-Dawley rat at 5 mg/kg, iv and measured upto 24 hrs by LC-MS/MS analysis; format: ADME, organism-based; settings: in vivo
[8] = Cmax in Sprague-Dawley rat at 5 mg/kg, po and measured upto 24 hrs by LC-MS/MS analysis; format: ADME, organism-based; design: dose 5 mg/kg, time < 24 hrs, route po; settings: in vivo
[9] = Cmax in Sprague-Dawley rat at 5 mg/kg, iv and measured upto 24 hrs by LC-MS/MS analysis; format: ADME, organism-based; design: time < 24 hrs, dose 5 mg/kg, route iv; settings: in vivo
[10] = Half life in Sprague-Dawley rat at 5 mg/kg, po and measured upto 24 hrs by LC-MS/MS analysis; format: ADME, organism-based; settings: in vivo
[11] = Half life in Sprague-Dawley rat at 5 mg/kg, iv and measured upto 24 hrs by LC-MS/MS analysis; format: ADME, organism-based; settings: in vivo
[12] = AUC(0 to infinity) in Sprague-Dawley rat at 5 mg/kg, po and measured upto 24 hrs by LC-MS/MS analysis; format: ADME, organism-based; design: time < 24 hrs, dose 5 mg/kg, route po; settings: in vivo
[13] = AUC(0 to infinity) in Sprague-Dawley rat at 5 mg/kg, iv and measured upto 24 hrs by LC-MS/MS analysis; format: ADME, organism-based; design: dose 5 mg/kg, time < 24 hrs, route iv; settings: in vivo
[14] = MRT (0 to infinity) in Sprague-Dawley rat at 5 mg/kg, po and measured upto 24 hrs by LC-MS/MS analysis; format: ADME, organism-based; settings: in vivo
[15] = MRT (0 to infinity) in Sprague-Dawley rat at 5 mg/kg, iv and measured upto 24 hrs by LC-MS/MS analysis; format: ADME, organism-based; settings: in vivo
[16] = Oral bioavailability in Sprague-Dawley rat at 5 mg/kg and measured upto 24 hrs by LCMS analysis; format: ADME, organism-based; settings: in vivo
[17] = Subacute toxicity in Kunming mouse assessed as animal death at 50 mg/kg,po for 14 days; format: organism-based; settings: in vivo, 336 h, time 14 day
[18] = Subacute toxicity in Kunming mouse assessed as body weight change at 50 mg/kg,po for 14 days; format: organism-based; settings: in vivo, 336 h, time 14 day
[19] = Subacute toxicity in Kunming mouse assessed as lethargy at 50 mg/kg,po for 14 days; format: organism-based; settings: in vivo, 336 h, time 14 day
[20] = Subacute toxicity in Kunming mouse assessed as clonic convulsion at 50 mg/kg,po for 14 days; format: organism-based; settings: in vivo, 336 h, time 14 day
[21] = Subacute toxicity in Kunming mouse assessed as anorexia at 50 mg/kg,po for 14 days; format: organism-based; settings: in vivo, 336 h, time 14 day
[22] = Subacute toxicity in Kunming mouse assessed as ruffled fur at 50 mg/kg,po for 14 days; format: organism-based; settings: in vivo, 336 h, time 14 day
[23] = Hepatotoxicity in Kunming mouse assessed as increase in ALT level in serum at 50 mg/kg,po for 14 days in presence of BSO; format: toxicity, organism-based; settings: in vivo, 336 h, time 14 day
[24] = Renal toxicity in Kunming mouse assessed as effect on BUN level at 50 mg/kg,po for 14 days; format: organism-based; settings: in vivo, 336 h, time 14 day
[25] = Toxicity in Kunming mouse assessed as cell arrangements in liver at 50 mg/kg, po administered and measured after 14 days by HE staining; format: organism-based; settings: in vivo, 336 h, time 14 day
[26] = Toxicity in Kunming mouse assessed as inflammatory infiltration in liver at 50 mg/kg, po administered and measured after 14 days by HE staining; format: organism-based; settings: in vivo, 336 h, time 14 day
[27] = Toxicity in Kunming mouse assessed as appearance of normal tubular structure in kidney at 50 mg/kg, po administered and measured after 14 days by HE staining; format: organism-based; settings: in vivo, 336 h, time 14 day
[28] = Toxicity in Kunming mouse assessed as appearance of normal glomerulus cells in kidney at 50 mg/kg, po administered and measured after 14 days by HE staining; format: organism-based; settings: in vivo, 336 h, time 14 day
[29] = test system: HepG2; assay: Cytotoxicity against human HepG2 cells assessed as reduction in cell viability upto 400 uM incubated for 24 hrs by MTT assay; format: toxicity, cell-based; settings: hepg2, 24 h
[30] = Toxicity in Kunming mouse assessed as inflammatory infiltration in kidney at 50 mg/kg, po administered and measured after 14 days by HE staining; format: organism-based; settings: in vivo, 336 h, time 14 day
[31] = test system: Mus musculus; assay: Anti-hyperuricemic activity against potassium oxonate induced hyperuricemia in Kunming mouse model assessed as decrease in serum urate level at 2 mg/kg, po and measured after 3 hrs; format: functional, organism-based

Question: Which IC50 [1] does the source give for `Cc1ccc2c(cnn2C(=O)c2cc(Cl)c(O)c(Cl)c2)c1` here?
Answer: 1810 nM

Question: For `O=C(c1ccc(O)c(Br)c1)n1ccc2cccnc21`, which IC50 [1] is on record?
Answer: 3800 nM

Question: For `O=C(c1cc(Cl)c(O)c(Cl)c1)n1ccc2ncccc21`, which IC50 [1] is on record?
Answer: 1560 nM

Question: Which IC50 [1] does the source give for `O=C(c1cc(Cl)c(O)c(Cl)c1)N1CCc2cc(Br)ccc21` here?
Answer: 2360 nM

Question: Which IC50 [1] does the source give for `O=C(c1ccc(O)cc1)n1ccc2cccnc21` here?
Answer: 1720 nM

Question: For `O=C(c1ccc(O)c(F)c1)n1ccc2cccnc21`, which IC50 [1] is on record?
Answer: 2080 nM

Question: Which IC50 [1] does the source give for `CC1Cc2ccccc2N1C(=O)c1cc(Cl)c(O)c(Cl)c1` (stereo unspecified) here?
Answer: 1600 nM

Question: With `CC(C)(Sc1ccncc1-c1ccc(C#N)c2ccccc12)C(=O)O` as the compound, how does the IC50 [1] read?
Answer: 130 nM

Question: Which results are given for `O=C(c1cc(Cl)c(O)c(Cl)c1)n1ccc2cccnc21`?
Answer: Activity [2]: Non-Toxic; Activity [3]: Non-Toxic; IC50 [1]: 800 nM; IC50 [4]: > 20 µM; IC50 [5]: 10.2 µM; Tmax [6]: 17.4 min; Tmax [7]: 31.2 min; Cmax [8]: 6830 ng/mL; Cmax [9]: 18400 ng/mL; half-life [10]: 277 min; half-life [11]: 408 min; AUC(0-inf) [12]: 35300 ng·h/mL; AUC(0-inf) [13]: 63800 ng·h/mL; MRT inf [14]: 7.27 h; MRT inf [15]: 9.85 h; bioavailability [16]: 55.3%; Activity [17]: Non-Toxic; Activity [18]: Non-Toxic; Activity [19]: Non-Toxic; Activity [20]: Non-Toxic; Activity [21]: Non-Toxic; Activity [22]: Non-Toxic; Activity [23]: Non-Toxic; Activity [24]: Non-Toxic; Activity [25]: Non-Toxic; Activity [26]: Non-Toxic; Activity [27]: Non-Toxic; Activity [28]: Non-Toxic; Activity [29]: Toxic; Activity [30]: Non-Toxic

Question: For `O=C(c1ccc(O)c([N+](=O)[O-])c1)n1ccc2cccnc21`, which IC50 [1] is on record?
Answer: 2950 nM

Question: For `COc1cc(C(=O)n2ccc3cccnc32)cc(OC)c1O`, which IC50 [1] is on record?
Answer: 4850 nM

Question: For `COc1cc(C(=O)n2ccc3cccnc32)ccc1O`, which IC50 [1] is on record?
Answer: 2690 nM

Question: With `Cc1cc(C(=O)n2ccc3cccnc32)ccc1O` as the compound, how does the IC50 [1] read?
Answer: 5830 nM

Question: For `O=C(c1ccc(O)c(Cl)c1)n1ccc2cccnc21`, which IC50 [1] is on record?
Answer: 1580 nM

Question: With `O=C(O)CSc1nnc(Br)n1-c1ccc(C2CC2)c2ccccc12` as the compound, how does the Activity [31] read?
Answer: Active

Question: With `O=C(c1cc(Cl)c(O)c(Cl)c1)n1ccc2cnccc21` as the compound, how does the IC50 [1] read?
Answer: 2810 nM

Question: With `Cc1cc(C(=O)n2ccc3cccnc32)cc(C)c1O` as the compound, how does the IC50 [1] read?
Answer: 2700 nM

Question: With `O=C(c1cc(Cl)c(O)c(Cl)c1)n1ccc2c(Cl)ncnc21` as the compound, how does the IC50 [1] read?
Answer: 1980 nM

Question: With `O=C(c1cc(Br)c(O)c(Br)c1)n1ccc2cccnc21` as the compound, how does the IC50 [1] read?
Answer: 2300 nM

Question: With `O=C(c1cc(Cl)c(O)c(Cl)c1)n1cc(Br)c2cccnc21` as the compound, how does the IC50 [1] read?
Answer: 1550 nM

Question: Which IC50 [1] does the source give for `O=C(c1cc(Cl)c(O)c(Cl)c1)n1ncc2ccccc21` here?
Answer: 2260 nM

Question: With `O=C(c1cc(Cl)c(O)c(Cl)c1)n1ccc2ccncc21` as the compound, how does the IC50 [1] read?
Answer: 3220 nM

Reference: ChEMBL document CHEMBL5352398 (Eur J Med Chem, 2022)
